Assay results: patent publication US8557819B2 (priority 2005, dated 2013)
Where a name gives a salt, the structure may show the parent alone.

biological target: nicotinic receptors containing the α7 subunit (Rattus norvegicus, UniProt Q05941); assay: biochemical; type: binding
Sequence (Q05941 23-502): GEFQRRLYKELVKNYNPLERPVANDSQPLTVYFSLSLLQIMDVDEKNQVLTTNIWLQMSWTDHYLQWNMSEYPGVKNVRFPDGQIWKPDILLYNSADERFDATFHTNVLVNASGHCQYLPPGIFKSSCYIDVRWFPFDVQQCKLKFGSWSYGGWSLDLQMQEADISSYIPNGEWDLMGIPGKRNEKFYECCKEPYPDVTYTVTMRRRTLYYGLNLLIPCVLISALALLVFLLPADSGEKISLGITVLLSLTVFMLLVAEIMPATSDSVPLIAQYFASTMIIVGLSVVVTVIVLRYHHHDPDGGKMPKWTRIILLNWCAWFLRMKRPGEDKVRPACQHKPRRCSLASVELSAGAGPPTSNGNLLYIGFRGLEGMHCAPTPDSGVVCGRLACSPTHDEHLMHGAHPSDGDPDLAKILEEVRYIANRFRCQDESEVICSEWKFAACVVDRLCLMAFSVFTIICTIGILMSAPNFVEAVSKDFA

| Structure (SMILES) | IC50 |
| --- | --- |
| Cc1csc(-c2ccc(C34CCCN(CC3)C4)nn2)c1 (racemic) [Compound 3] | 428 nM |
| COc1ccc(-c2ccc(C34CCCN(CC3)C4)nn2)cc1 (racemic) [Compound 7] | 164 nM |
| c1coc(-c2ccc(C34CCCN(CC3)C4)nn2)c1 (racemic) [Compound 8] | 442 nM |

tested on: not given; assay: not given

| Structure (SMILES) | melting point |
| --- | --- |
| c1c[nH]c(-c2ccc(C34CCCN(CC3)C4)nn2)c1 (stereo not drawn) | 207 to 209 °C |
| c1c[nH]c(-c2ccc(C34CCCN(CC3)C4)nn2)n1 (stereo not drawn) (as salt: HBr) | 290 to 292 °C |
| c1n[nH]cc1-c1ccc(C23CCCN(CC2)C3)nn1 (stereo not drawn) (as salt: HBr) [20] | 221 to 223 °C |
| c1n[nH]cc1-c1ccc(C23CCCN(CC2)C3)nn1 (stereo not drawn) (as salt: HBr) [22] | 295 to 297 °C |
| c1cc(-c2ccc(C34CCCN(CC3)C4)nn2)co1 (stereo not drawn) (as salt: HCl) | 226 to 228 °C |
| c1nc(-c2ccc(C34CCCN(CC3)C4)nn2)c[nH]1 (stereo not drawn) (as salt: HCl) [18] | 271 to 273 °C |
| c1cncc(-c2ccc(C34CCCN(CC3)C4)nn2)c1 (racemic) | 131 to 133 °C |
| c1cc(-c2ccc(C34CCCN(CC3)C4)nn2)co1 (racemic) | 140 to 141 °C |
| Clc1ccc(C23CCCN(CC2)C3)nn1 (racemic) (as salt: HCl) | 234 to 235 °C |
| COc1ccc(-c2ccc(C34CCCN(CC3)C4)nn2)cc1 (racemic) (as salt: HCl) [Compound 7] | 229 to 231 °C |
| c1coc(-c2ccc(C34CCCN(CC3)C4)nn2)c1 (racemic) (as salt: HCl) [Compound 8] | 274 to 275 °C |
| Cc1csc(-c2ccc(C34CCCN(CC3)C4)nn2)c1 (racemic) [Compound 3] | 139 to 140 °C |
